What was measured:
[1] = tested on: CDAHFD diet-induced NAFLD/NASH in wild-type mice; test: TOFA in wild-type mice on CDAHFD (comparison to PPARA KO); format: in vivo, C57BL/6J (WT) mice
Protocol: Six-week-old genetic PPARA knockout (PPARA KO) male mice were fed with a L-amino acid diet with 60 kcal % fat with 0.1% methionine and no added choline (CDAHFD; Research Diets A06071302i) for three weeks or fed with a 60 kcal % fat diet (DIO; Research Diets A12492i) for eight weeks before introduction of either vehicle (control) or 125 mg/kg of TOFA, BID, via oral gavage for an additional two weeks (FIG. 11A and FIG. 11J, respectively). C57BL/6J (WT) mice were fed with the CDAHFD and underwent similar experimental conditions and time course. Mice weights and adverse events were monitored during the treatment time course. Upon study termination, serum and liver samples were collected. Serum liver damage biomarkers, ALT and AST, were measured by commercially available kits (abcam105134 and abcam 105135, respectively). Hepatic and serum triglyceride levels were measured from a commercially available kit (abcam65336). […] Quantitative PCR (qPCR) was performed with fast SYBR Green Mix (ThermoFisher A25742) on the QuantStudio6 System (Applied Biosciences). Protein expression levels of liver samples were measured by western blot using antibodies against ACC1/2 (CST3662, 1:1000), VLDLR (AF2258, 1:2000), CPT1A (CST12252, 1:1000), PPARA (abcam126285, 1:1000) and beta-tubulin (CST2146, 1:1000). […]

[2] = tested on: CDAHFD induced late stage NAFLD/NASH in mice; test: In-depth investigation of rescue effect of TOFA in CDAHFD induced late stage NAFLD/NASH; format: in vivo, C57BL/6J male mice; conditions: four weeks
Protocol: Six-week-old C57BL/6J male mice were fed with a L-amino acid diet with 60 kcal % fat with 0.1% methionine and no added choline (CDAHFD; Research Diets A06071302i) for eight weeks. Ten subjects were randomly assigned to either a vehicle (control) treatment or a 125 mg/kg. BID, of TOFA treatment delivered by oral gavage for an additional four weeks. Mice weights were monitored during the entire treatment time course. Upon study termination at 12 weeks, serum and liver samples were collected. Serum liver damage biomarkers, ALT and AST, were measured by commercially available kits (abcam 105134 and abcam 105135, respectively). Hepatic and serum triglyceride levels were measured from a commercially available kit (abcam65336). Total RNA was extracted from liver tissues (Qiagen RNeasy kit 74106), and cDNA was prepared (BioRAD iScript™ Reverse Transcription) according to manufacturer's protocols. Quantitative PCR (qPCR) was performed with fast SYBR Green Mix (ThermoFisher A25742) on the QuantStudio6 System (Applied Biosciences).

[3] = tested on: CDAHFD-induced late stage NAFLD/NASH in mice; test: Benchmark study against Firsocostat and Fenofibrate in CDAHFD-induced late stage NAFLD/NASH; format: in vivo, C57BL/6J male mice; conditions: QD oral gavage four weeks
Protocol: Six-week-old C57BL/6J male mice were fed with a L-amino acid diet with 60 kcal % fat with 0.1% methionine and no added choline (CDAHFD; Research Diets A06071302i) for eight weeks. Mice were randomly assigned to treatment groups of either a vehicle (control), 250 mg/kg of TOFA, 5 mg/kg of Firsocostat (Gilead Sciences), 50 mg/kg of Fenofibrate, or a combined dose of 5 mg/kg Firsocostat and 50 mg/kg Fenofibrate. All treatments were delivered QD by oral gavage for an additional four weeks. Mice weights and food intake were monitored during the treatment time course. Upon study termination at 12 weeks, liver and serum samples were collected. Serum liver damage biomarkers, ALT and AST, were measured by commercially available kits (abcam 105134 and abcam 105135, respectively). Hepatic and serum triglyceride levels were measured from a commercially available kit (abcam65336). Total RNA was extracted from liver tissues (Qiagen RNeasy kit 74106), and cDNA was prepared (BioRAD iScript™ Reverse Transcription) according to manufacturer's protocols. Quantitative PCR (qPCR) was performed with fast SYBR Green Mix (ThermoFisher A25742) on the QuantStudio6 System (Applied Biosciences). Protein expression levels of liver samples were measured by western blot using antibodies against VLDLR (AF2258, 1:2000), CPT1A (CST12252, 1:1000) and Histone H3 (CST9715, 1:1000). Membranes were developed using a HRP secondary antibody (1:5000) and visualized using an enhanced chemiluminescent HRP substrate (Thermo34577). Additional liver samples were fixed in 4% paraformaldehyde and embedded in paraffin blocks for sectioning and subsequently stained with hematoxylin and eosin (H&E).

[4] = tested on: CDAHFD diet-induced NAFLD/NASH with PPARA KO; test: TOFA in genetic PPARA knockout mice, CDAHFD model of NAFLD/NASH; format: in vivo, PPARA knockout (PPARA KO) male mice
Protocol: Six-week-old genetic PPARA knockout (PPARA KO) male mice were fed with a L-amino acid diet with 60 kcal % fat with 0.1% methionine and no added choline (CDAHFD; Research Diets A06071302i) for three weeks or fed with a 60 kcal % fat diet (DIO; Research Diets A12492i) for eight weeks before introduction of either vehicle (control) or 125 mg/kg of TOFA, BID, via oral gavage for an additional two weeks (FIG. 11A and FIG. 11J, respectively). C57BL/6J (WT) mice were fed with the CDAHFD and underwent similar experimental conditions and time course. Mice weights and adverse events were monitored during the treatment time course. Upon study termination, serum and liver samples were collected. Serum liver damage biomarkers, ALT and AST, were measured by commercially available kits (abcam105134 and abcam 105135, respectively). Hepatic and serum triglyceride levels were measured from a commercially available kit (abcam65336). Total RNA was extracted from liver tissues (Qiagen RNeasy kit 74106), and cDNA was prepared (BioRAD iScript™M Reverse Transcription) according to manufacturer's protocols. Quantitative PCR (qPCR) was performed with fast SYBR Green Mix (ThermoFisher A25742) on the QuantStudio6 System (Applied Biosciences). Protein expression levels of liver samples were measured by western blot using antibodies against ACC1/2 (CST3662, 1:1000), VLDLR (AF2258, 1:2000), CPT1A (CST12252, 1:1000), PPARA (abcam126285, 1:1000) and beta-tubulin (CST2146, 1:1000). Membranes were developed using a HRP secondary antibody (1:5000) and visualized using an enhanced chemiluminescent HRP substrate (Thermo34577). Additional liver samples were fixed in 4% paraformaldehyde and embedded in paraffin blocks for sectioning and subsequently stained with hematoxylin and eosin (H&E). Frozen fresh liver tissue was embedded in OCT, sectioned, and subsequently stained with Oil Red O.

In the case of `CCCCCCCCCCCCCCOc1ccc(C(=O)O)o1` [TOFA, 5-(Tetradecyloxy)-2-furoic acid], the “Cpt1a mRNA (RT-qPCR)” value ([1]; 125 mg/kg BID, two weeks) is reported as “induction of Cpt1a mRNA”, the “protein expression levels of CPT1A, VLDLR, and ACC1 (western blot)” value ([1]; relative to vehicle control) is reported as “increased” and the “hepatic hydrogen peroxide levels” value ([2]; 125 mg/kg BID oral gavage) is reported as “decrease”. The liver triglyceride levels ([2]; 125 mg/kg BID oral gavage) was “significant decrease”, the “serum ALT” value ([2]; 125 mg/kg BID oral gavage) was “trending decreases” and the “serum AST” value ([2]; 125 mg/kg BID oral gavage) was “trending decreases”. The body weight ([2]; 125 mg/kg BID oral gavage, vs vehicle) was “significant decrease”, the “expression of genes involved in collagen biosynthesis by qPCR” value ([2]; liver mRNA, 125 mg/kg BID) was “decreased” and the “expression of inflammation genes (Il1b, Tnfa) by RT-qPCR” value ([2]; liver mRNA, 125 mg/kg BID) was “decrease in expression”. For the same compound, the “genes with PPAR regulatory elements (beta-oxidation, lipogenesis) by RT-qPCR” value ([2]; liver mRNA, 125 mg/kg BID) was “upregulated”, the food intake [3] was “not attributed to changes in food intake” and the liver damage ([3]; TOFA 250 mg/kg) was “largely decreased liver damage relative to vehicle control treatment at comparable, or stronger, degrees than Firsocostat, Fenofibrate, or the combination of the two agents”. The liver triglyceride levels ([3]; TOFA 250 mg/kg) was “strong decrease in liver triglyceride levels relative to Firsocostat treatments and vehicle control treatment”, the body weight ([3]; TOFA 250 mg/kg, Firsocostat 5 mg/kg, Fenofibrate 50 mg/kg) was “significant weight loss” and the “PPARA downstream targets Vldlr and Cpt1a (RT-qPCR)” value ([3]; liver mRNA) was “unique increase”. For the same compound, the “genes involved in inflammation (Il1b, Il6) and collagen synthesis (Col1a1, Col3a) by RT-qPCR” value ([3]; liver mRNA) was “specific, comparable response”, the “protein expression levels of VLDLR and CPT1A (western blot)” value ([3]; liver samples) was “increased protein expression levels of VLDLR and CPT1A to higher degrees than the other treatment regimens” and the “steatosis (H&E staining)” value ([3]; liver sections) was “decreased levels of steatosis”. For the same compound, the body weight ([4]; 125 mg/kg BID oral gavage, two weeks) was “trending decrease in weight”, the “Cpt1a mRNA (RT-qPCR)” value ([4]; 125 mg/kg BID, two weeks) was “blunted” and the “hepatic steatosis (H&E)” value ([4]; 125 mg/kg BID, two weeks) was “minimal decreases in hepatic steatosis”. For the same compound, the “lipid content by Oil Red O” value ([4]; 125 mg/kg BID, two weeks) was “minimal changes in lipid content”, the “liver triglyceride (hepatic lipid levels)” value ([4]; 125 mg/kg BID, two weeks) was “no notable decrease” and the “serum ALT levels” value ([4]; 125 mg/kg BID, two weeks) was “marginal decreases”. The “serum AST levels” value ([4]; 125 mg/kg BID, two weeks) was “marginal decreases” and the “protein expression levels of CPT1A, VLDLR, and ACC1 (western blot)” value ([4]; relative to vehicle control) was “not observed”.

Source: patent US20260034091A1, “Compositions and Methods for Treating Metabolic Disorders” (The Regents of the University of California, priority 2022, published 2026)
